# Read-outs that look alike come from different tables or passages of the source.
# Key:
# Format in all cases: cell-based
# Botrytis cinerea [1] = test: Toxicity determination (EC50) on mycelial growth, growth rate method
# Method: (§1) The inhibition of samples for testing on the mycelial growth of plant pathogenic fungi for testing is determined with a growth rate method. 3-(3',4'-methylenedioxy phenyl)-N-n-propyl acrylamide, 3-(3',4'-methylenedioxy phenyl)-piperidine acrylate and five control agents are dissolved with dimethyl sulfoxide (DMSO), then formulated at 5-7 concentrations of different gradients for test following the trial test results, with the same concentration of DMSO as the control solvent, each treatment in triplicate. Fungal cakes with a diameter of 4 mm are taken from the edge of the colony, inoculated into the center of a PDA plate containing different agents of different concentrations and the DMSO control, with one piece of fungal cake inoculated in each plate (with a diameter of […]), and incubated in a constant temperature incubator at a temperature of 22±1.5°C. 7 days later (10-20 days may be needed for some pathogenic fungi), the diameter of the colony is measured with a cross over method according to the mycelial growth profile of the control pathogenic fungi, then the inhibition rate of mycelial growth is calculated.
# (§2) 3-(3',4'-methylenedioxy phenyl)-piperidine acrylate, the control agents 96.5% of chlorothalonil technical and 97.0% of procymidone technical. Agents for testing and the control agents chlorothalonil and procymidone are treated at 5-8 concentrations of different gradients on the basis of preliminary tests to ensure that the inhibition rates for treatments at all the concentrations are between 10% and 90%.
# (§3) For specific determination methods, with reference to Embodiment 1. The concentration of active ingredients in the culture medium is used as the testing concentration to calculate the toxic regression equation (Y=bx+a) and the median inhibition concentration EC50, 95% confidence limit, and relative toxicity. Relative toxicity (compared to chlorothalonil) = EC50 of chlorothalonil / EC50 of 3-(3',4'-methylenedioxy phenyl)-piperidine acrylate, and relative toxicity (compared to procymidone) = EC50 of procymidone / EC50 of 3-(3',4'-methylenedioxy phenyl)-piperidine acrylate.
# Sclerotinia sclerotiorum [2] = test: as above
# Method: as §1, §2, §3
# Valsa mali [3] = test: as above
# Method: as §1, §2, §3
# Exserohilum turcicum [4] = test: as above
# Method: as §1, §2, §3
# Colletotrichum capsici [5] = test: as above
# Method: as §1, §2, §3
# Fusarium graminearum [6] = test: microbe, parasite or virus in culture
# Fusarium graminearum [7] = test: microbe, parasite or virus in culture; remark: listed apart in the source
# Phytophthora infestans [8] = test: microbe, parasite or virus in culture; settings: 1 mg/mL
# F. graminearum [9] = test: microbe, parasite or virus in culture
# F. graminearum [10] = test: microbe, parasite or virus in culture; remark: listed apart in the source
# Pyricularia grisea = test: microbe, parasite or virus in culture
# Phytophthora infestans [11] = settings: Phytophthora infestas; 1 mg/mL
# Thanatephorus cucumeris = test: Ex vivo mycelial growth inhibition, growth rate method; settings: 1 mg/mL
# Source text: (§4) 3-(3',4'-methylenedioxy phenyl)-N-n-propyl acrylamide (at a purity of 99%), 3-(3',4'-methylenedioxy phenyl)-piperidine acrylate (at a purity of 99%), the control agents, 96.5% of chlorothalonil technical (non-systemic broad-spectrum fungicide), 97.2% of carbendazim technical (systemic broad-spectrum fungicide), 97.0% of procymidone technical (systemic fungicide), 96.0% of dimethomorphtechnical ((E,Z)-4-[3-(4-chlorphenyl)3-(3,4-dimethoxy phenyl)acryloyl]morpholine, systemic fungicide), 97.0% of azoxystrobin technical (systemic broad-spectrum fungicide).
# as §1
# (§5) The computational formula is as below: the inhibition rate of mycelial growth (%) = [(the diameter of the control colony - the diameter of the treated colony)/the diameter of the control colony] × 100.
# (§6) The inhibition results of each agent at a concentration of 1 mg/mL on the mycelial growth of plant pathogenic fungi are shown in Tables 1 and 2.
# Botrytis cinerea [12] = test: as above; settings: 1 mg/mL
# Source text: as §4, §1, §5, §6
# [13] = tested on: Gaeumannomyces graminis var. graminis and G. graminis var. tritici; test: as above; settings: 1 mg/mL
# Source text: as §4, §1, §5, §6
# Sclerotinia sclerotiorum [14] = test: as above; settings: 1 mg/mL
# Source text: as §4, §1, §5, §6
# Coniella diplodiella = test: as above; settings: 1 mg/mL
# Source text: as §4, §1, §5, §6
# [15] = tested on: F. oxysporum f. sp. vasinfectum; test: as above; settings: 1 mg/mL
# Source text: as §4, §1, §5, §6
# Mycosphaerlla melonis = test: as above; settings: 1 mg/mL
# Source text: as §4, §1, §5, §6
# Pythium aphanidermatum = test: as above; settings: 1 mg/mL
# Source text: as §4, §1, §5, §6
# Rhizoctonia solani = test: as above; settings: Rhizoctonia solani; 1 mg/mL
# Source text: as §4, §1, §5, §6
# Valsa mali [16] = test: as above; settings: 1 mg/mL
# Source text: as §4, §1, §5, §6
# [17] = tested on: Botryosphaeria berengeriana; test: as above; settings: 1 mg/mL
# Source text: as §4, §1, §5, §6
# C. gossypii = test: as above; settings: 1 mg/mL
# Source text: as §4, §1, §5, §6
# F. verticillioide = test: as above; settings: 1 mg/mL
# Source text: as §4, §1, §5, §6
# F. oxysporum f. sp. lini = test: as above; settings: 1 mg/mL
# Source text: as §4, §1, §5, §6
# Phytophthora capsici = test: as above; settings: Phytophthora capsici; 1 mg/mL
# Source text: as §4, §1, §5, §6
# Exserohilum turcicum [18] = test: as above; settings: 1 mg/mL
# Source text: as §4, §1, §5, §6
# [19] = tested on: Botryosphaeriana berengeriana; test: as above; settings: 1 mg/mL
# Source text: as §4, §1, §5, §6
# Colletotrichum capsici [20] = test: as above; settings: 1 mg/mL
# Source text: as §4, §1, §5, §6
# Phytophthora infestans [21] = test: microbe, parasite or virus in culture
# Magnaporthe grisea = test: microbe, parasite or virus in culture
# [22] = EC50 of chlorothalonil / EC50 of agent
# [23] = EC50 of procymidone / EC50 of agent
# [24] = median inhibition concentration
compound,measurement,setting,value
"CC12CC1(C)C(=O)N(c1cc(Cl)cc(Cl)c1)C2=O (centres unmarked) [Procymidone, procymidone]",Relative Toxicity (Compared to Chlorothalonil),Botrytis cinerea [1]; [22],2.24
same,Relative Toxicity (Compared to Procymidone),Botrytis cinerea [1]; [23],1.00
same,EC50,Botrytis cinerea [1]; [24],78.9 µg/mL
same,Relative Toxicity (Compared to Chlorothalonil),Sclerotinia sclerotiorum [2]; [22],0.89
same,Relative Toxicity (Compared to Procymidone),Sclerotinia sclerotiorum [2]; [23],1.00
same,EC50,Sclerotinia sclerotiorum [2]; [24],70.6 µg/mL
same,Relative Toxicity (Compared to Chlorothalonil),Valsa mali [3]; [22],0.98
same,Relative Toxicity (Compared to Procymidone),Valsa mali [3]; [23],1.00
same,EC50,Valsa mali [3]; [24],427.3 µg/mL
same,Relative Toxicity (Compared to Chlorothalonil),Exserohilum turcicum [4]; [22],3.92
same,Relative Toxicity (Compared to Procymidone),Exserohilum turcicum [4]; [23],1.00
same,EC50,"Exserohilum turcicum [4]; median inhibition concentration, read-out: EC50",105 µg/mL
same,EC50,"Colletotrichum capsici [5]; Colletotrichum truncatum, median inhibition concentration, read-out: EC50",518 µg/mL
same,Relative Toxicity (Compared to Chlorothalonil),Colletotrichum capsici [5]; [22],0.78
same,Relative Toxicity (Compared to Procymidone),Colletotrichum capsici [5]; [23],1.00
same,Relative Toxicity (Compared to Chlorothalonil),Fusarium graminearum [6]; [22],3.27
same,Relative Toxicity (Compared to Procymidone),Fusarium graminearum [6]; [23],1.00
same,EC50,Fusarium graminearum [6]; [24],144 µg/mL
same,Average Diameter of the Colony,Fusarium graminearum [7]; 1 mg/mL,2.26 cm
same,inhibition at 1000 µg/mL,Fusarium graminearum [7]; read-out: Inhibition Rate,57.7%
same,Average Diameter of the Colony,Phytophthora infestans [8],0.00 cm
same,Average Diameter of the Colony,"F. graminearum [9]; F. graminearum, 1 mg/mL",3.57 cm
same,inhibition at 1000 µg/mL,"F. graminearum [9]; Fusarium graminearum, read-out: Inhibition Rate",58.5%
same,Relative Toxicity (Compared to Chlorothalonil),F. graminearum [10]; [22],0.27
same,Relative Toxicity (Compared to Procymidone),F. graminearum [10]; [23],1.00
same,EC50,"F. graminearum [10]; Fusarium graminearum, median inhibition concentration",850 µg/mL
same,Average Diameter of the Colony,Pyricularia grisea; 1 mg/mL,4.63 cm
same,inhibition at 1000 µg/mL,Pyricularia grisea; read-out: Inhibition Rate,48.6%
same,Average Diameter of the Colony,Phytophthora infestans [11],0.80 cm
same,Average Diameter of the Colony,Thanatephorus cucumeris,0.54 cm
same,inhibition at 1000 µg/mL,Thanatephorus cucumeris,93.7%
same,Average Diameter of the Colony,Botrytis cinerea [12],1.74 cm
same,inhibition at 1000 µg/mL,Botrytis cinerea [12],76.8%
same,Average Diameter of the Colony,[13],2.16 cm
same,inhibition at 1000 µg/mL,[13],69.8%
same,Average Diameter of the Colony,Sclerotinia sclerotiorum [14],0.00 cm
same,inhibition at 1000 µg/mL,Sclerotinia sclerotiorum [14],100%
same,Average Diameter of the Colony,Coniella diplodiella,0.06 cm
same,inhibition at 1000 µg/mL,Coniella diplodiella,99.1%
same,Average Diameter of the Colony,[15],2.57 cm
same,inhibition at 1000 µg/mL,[15]; Fusarium oxysporum,64.5%
same,Average Diameter of the Colony,Mycosphaerlla melonis,0.24 cm
same,inhibition at 1000 µg/mL,Mycosphaerlla melonis,97.2%
same,Average Diameter of the Colony,Pythium aphanidermatum,6.20 cm
same,inhibition at 1000 µg/mL,Pythium aphanidermatum,7.46%
same,Average Diameter of the Colony,Rhizoctonia solani,0.00 cm
same,inhibition at 1000 µg/mL,Rhizoctonia solani,100%
same,Average Diameter of the Colony,Valsa mali [16],0.83 cm
same,inhibition at 1000 µg/mL,Valsa mali [16]; Cytospora mali,89%
same,Average Diameter of the Colony,[17],0.15 cm
same,inhibition at 1000 µg/mL,[17],97.8%
same,Average Diameter of the Colony,C. gossypii; C. gossypii,1.62 cm
same,inhibition at 1000 µg/mL,"C. gossypii; Colletotrichum gossypii, C. cossypii, read-out: Inhibition Rate",70%
same,Average Diameter of the Colony,F. verticillioide,2.57 cm
same,inhibition at 1000 µg/mL,F. verticillioide,24%
same,Average Diameter of the Colony,F. oxysporum f. sp. lini,6.33 cm
same,inhibition at 1000 µg/mL,F. oxysporum f. sp. lini; Fusarium oxysporum,29.7%
same,Average Diameter of the Colony,Phytophthora capsici,5.10 cm
same,inhibition at 1000 µg/mL,Phytophthora capsici,3.77%
same,Average Diameter of the Colony,Exserohilum turcicum [18],0.24 cm
same,inhibition at 1000 µg/mL,Exserohilum turcicum [18],96.1%
same,Average Diameter of the Colony,[19],0.20 cm
same,inhibition at 1000 µg/mL,[19],96.5%
same,Average Diameter of the Colony,Colletotrichum capsici [20],1.19 cm
same,inhibition at 1000 µg/mL,Colletotrichum capsici [20]; Colletotrichum truncatum,82.5%
same,Relative Toxicity (Compared to Chlorothalonil),Phytophthora infestans [21]; [22],0.15
same,Relative Toxicity (Compared to Procymidone),Phytophthora infestans [21]; [23],1.00
same,EC50,Phytophthora infestans [21]; [24],778 µg/mL
same,Relative Toxicity (Compared to Chlorothalonil),Magnaporthe grisea; [22],1.42
same,Relative Toxicity (Compared to Procymidone),Magnaporthe grisea; [23],1.00
same,EC50,"Magnaporthe grisea; Pyricularia oryzae, median inhibition concentration",308 µg/mL

# From patent publication EP3818828A1 (priority 2019, dated 2021)
